Results reported in US20090275583A1, “ANTIVIRAL COMPOUNDS AND USE THEREOF” (Myriad Genetics, Incorporated, priority 2006, published 2009).

The molecules below were run on HIV-1 laboratory strain, NL4-3 (assay: MT-4 cytoprotection assay). Details: Human immunodeficiency virus 1, NL43, MT4, 96 h; MT-4 cells, four days incubation, WST-1 readout; read-out: MT4 EC50.
Assay type: cell-based
Experimental: The HTLV-1 transformed T cell line, MT-4, is highly susceptible to HIV-1 infection. Anti-HIV-1 agents were evaluated in this target cell line by protection from the HIV-induced cytopathic effect. In this assay, viability of both HIV-1 and mock-infected cells was assessed in a […] assay that monitors the ability of metabolically-active cells to reduce the tetrazolium salt WST-1. Cytoprotection by antiviral compounds is indicated by the positive readout of increased WST-1 cleavage.
Briefly, exponentially growing MT-4 cells were mock-infected or batch-infected with the HIV-1 laboratory strain, NL4-3, at a multiplicity of infection of 0.0005. Following a two hour infection, the cells were washed to remove unbound virus and plated in the presence of increasing concentrations of compound. After four days incubation, cytoprotection in the infected cells and compound toxicity in mock-infected cells were analyzed using the WST-1 assay.

Structure (SMILES) | EC50 [nM]
C=C(C)[C@@H]1CC[C@]2(C(=O)NCc3cccc(C(=O)NCCCCC(=O)O)c3)CC[C@]3(C)C(CCC4[C@@]5(C)CC[C@H](O)C(C)(C)C5CC[C@]43C)C12 (stereo partly drawn) [Example 1] | 615
C=C(C)[C@@H]1CC[C@]2(C(=O)NCc3cccc(C(=O)NCCCCCCC(=O)O)c3)CC[C@]3(C)C(CCC4[C@@]5(C)CC[C@H](O)C(C)(C)C5CC[C@]43C)C12 (stereo partly drawn) [Example 2] | 940
C=C(C)[C@@H]1CC[C@]2(C(=O)NCc3cccc(C(=O)NCCC(=O)O)c3)CC[C@]3(C)C(CCC4[C@@]5(C)CC[C@H](O)C(C)(C)C5CC[C@]43C)C12 (stereo partly drawn) [Example 3] | 10000
C=C(C)[C@@H]1CC[C@]2(C(=O)NCc3cccc(C(=O)NCCNC(C)=O)c3)CC[C@]3(C)C(CCC4[C@@]5(C)CC[C@H](O)C(C)(C)C5CC[C@]43C)C12 (stereo partly drawn) [Example 4] | 2300
C=C(C)[C@@H]1CC[C@]2(C(=O)NCc3cccc(C(=O)NCCc4cccc(C(=O)O)c4)c3)CC[C@]3(C)C(CCC4[C@@]5(C)CC[C@H](O)C(C)(C)C5CC[C@]43C)C12 (stereo partly drawn) [Example 16] | 210
C=C(C)[C@@H]1CC[C@]2(C(=O)NCc3ccc(C(=O)NCCC(=O)O)cc3)CC[C@]3(C)C(CCC4[C@@]5(C)CC[C@H](O)C(C)(C)C5CC[C@]43C)C12 (stereo partly drawn) [Example 49] | 10000
C=C(C)[C@@H]1CC[C@]2(C(=O)NCc3ccc(C(=O)NCCCCC(=O)O)cc3)CC[C@]3(C)C(CCC4[C@@]5(C)CC[C@H](O)C(C)(C)C5CC[C@]43C)C12 (stereo partly drawn) [Example 50] | 10000
C=C(C)[C@@H]1CC[C@]2(C(=O)NCc3ccc(C(=O)NCCCCCCC(=O)O)cc3)CC[C@]3(C)C(CCC4[C@@]5(C)CC[C@H](O)C(C)(C)C5CC[C@]43C)C12 (stereo partly drawn) [Example 51] | 10000
C=C(C)[C@@H]1CC[C@]2(C(=O)NCc3ccc(C(=O)NCCNC(C)=O)cc3)CC[C@]3(C)C(CCC4[C@@]5(C)CC[C@H](O)C(C)(C)C5CC[C@]43C)C12 (stereo partly drawn) [Example 52] | 10000
C=C(C)[C@@H]1CC[C@]2(C(=O)NCc3ccc(C(=O)NCCNC(=O)OCc4ccccc4)cc3)CC[C@]3(C)C(CCC4[C@@]5(C)CC[C@H](O)C(C)(C)C5CC[C@]43C)C12 (stereo partly drawn) [Example 53] | 10000

These molecules were tested on HIV-1NL4-3 (assay: P4-MAGI assay). Details: Human immunodeficiency virus 1, 24 h, P4 cells, 24 hour incubation, β-galactosidase expression; read-out: P4-MAGI IC50.
Assay type: cell-based
Excerpt: P4 cells were used to test the effects of compounds on virus fusion activity. P4 cells are HIV-1 infectable CD4^+ HeLa cells that bear the bacterial lacZ gene under the control of a minimal HIV-1 LTR. Charneau, et. al., J. Mol. Biol. 241:651-662 (1994). When these cells are infected with HIV-1, β-galactosidase is expressed due to Tat activation of the viral LTR. In this assay, P4 cells were infected with the laboratory adapted strain HIV-1NL4-3 at a multiplicity of infection of 1 in the presence of DEAE-Dextran. Immediately after addition of virus to the cells, increasing concentrations of compound were added to the cells. […] The effect on cell viability (TC50, concentration of compound that inhibits growth by 50%) was determined in mock-infected cells with the WST-1 Cell Proliferation Reagent (Roche Diagnostics).

Structure (SMILES) | IC50 [nM]
C=C(C)[C@@H]1CC[C@]2(C(=O)NCc3cccc(C(=O)NCCCCC(=O)O)c3)CC[C@]3(C)C(CCC4[C@@]5(C)CC[C@H](O)C(C)(C)C5CC[C@]43C)C12 (stereo partly drawn) [Example 1] | 49.3
C=C(C)[C@@H]1CC[C@]2(C(=O)NCc3cccc(C(=O)NCCCCCCC(=O)O)c3)CC[C@]3(C)C(CCC4[C@@]5(C)CC[C@H](O)C(C)(C)C5CC[C@]43C)C12 (stereo partly drawn) [Example 2] | 46.7
C=C(C)[C@@H]1CC[C@]2(C(=O)NCc3cccc(C(=O)NCCNC(C)=O)c3)CC[C@]3(C)C(CCC4[C@@]5(C)CC[C@H](O)C(C)(C)C5CC[C@]43C)C12 (stereo partly drawn) [Example 4] | 155
C=C(C)[C@@H]1CC[C@]2(C(=O)NCc3cccc(-c4cccc(C(=O)O)c4)c3)CC[C@]3(C)C(CCC4[C@@]5(C)CC[C@H](O)C(C)(C)C5CC[C@]43C)C12 (stereo partly drawn) [Example 128] | 1000
C=C(C)[C@@H]1CC[C@]2(C(=O)NCc3cccc(-c4cccc(C(=O)N[C@@H](CC(C)C)[C@@H](O)CC(=O)O)c4)c3)CC[C@]3(C)C(CCC4[C@@]5(C)CC[C@H](O)C(C)(C)C5CC[C@]43C)C12 (stereo partly drawn) [Example 129] | 3600
C=C(C)[C@@H]1CC[C@]2(C(=O)NCc3cccc(-c4cccc(C(=O)NCC(=O)OCC)c4)c3)CC[C@]3(C)C(CCC4[C@@]5(C)CC[C@H](O)C(C)(C)C5CC[C@]43C)C12 (stereo partly drawn) [Example 131] | 6500
CC(O)(CN1CCCC1)[C@@H]1CC[C@]2(C(=O)NCc3cccc(C(=O)NCCCCC(=O)O)c3)CC[C@]3(C)C(CCC4[C@@]5(C)CC[C@H](O)C(C)(C)C5CC[C@]43C)C12 (stereo partly drawn) [Example 138] | 550
C=C(C)[C@@H]1CC[C@]2(CC(=O)NCc3cccc(C(=O)NCc4cccc(C(=O)O)c4)c3)CC[C@]3(C)C(CCC4[C@@]5(C)CC[C@H](O)C(C)(C)C5CC[C@]43C)C12 (stereo partly drawn) [Example 142] | 3400
C=C(C)[C@@H]1CC[C@]2(C(=O)NCCc3cccc(C(=O)NC(Cc4ccc(O)cc4)C(=O)OC)c3)CC[C@]3(C)C(CCC4[C@@]5(C)CC[C@H](O)C(C)(C)C5CC[C@]43C)C12 (stereo partly drawn) [Example 144] | 204
C=C(C)[C@@H]1CC[C@]2(C(=O)NCCc3cccc(C(=O)NC(Cc4ccc(O)cc4)C(=O)O)c3)CC[C@]3(C)C(CCC4[C@@]5(C)CC[C@H](O)C(C)(C)C5CC[C@]43C)C12 (stereo partly drawn) [Example 145] | 1100
C=C(C)[C@@H]1CC[C@]2(C(=O)NCc3cc(C(=O)NCc4ccc(N(C)C)cc4)ccc3F)CC[C@]3(C)C(CCC4[C@@]5(C)CC[C@H](O)C(C)(C)C5CC[C@]43C)C12 (stereo partly drawn) [Example 180] | 1000
C=C(C)[C@@H]1CC[C@]2(C(=O)NCc3cc(C(=O)NCc4cccc(C(=O)OC)c4F)ccc3F)CC[C@]3(C)C(CCC4[C@@]5(C)CC[C@H](O)C(C)(C)C5CC[C@]43C)C12 (stereo partly drawn) [Example 182] | 600
C=C(C)[C@@H]1CC[C@]2(C(=O)NCCc3cccc(C(=O)NCC4CCCN4C(=O)OC(C)(C)C)c3)CC[C@]3(C)C(CCC4[C@@]5(C)CC[C@H](O)C(C)(C)C5CC[C@]43C)C12 (stereo partly drawn) [Example 203] | 856
C=C(C)[C@@H]1CC[C@]2(C(=O)NCCc3cccc(C(=O)NCC4CCCN4)c3)CC[C@]3(C)C(CCC4[C@@]5(C)CC[C@H](O)C(C)(C)C5CC[C@]43C)C12 (stereo partly drawn) [Example 204] | 1940
C=C(C)[C@@H]1CC[C@]2(C(=O)NCCc3cccc(C(=O)N4CCC(c5ccccc5)CC4)c3)CC[C@]3(C)C(CCC4[C@@]5(C)CC[C@H](O)C(C)(C)C5CC[C@]43C)C12 (stereo partly drawn) [Example 205] | 1000
C=C(C)[C@@H]1CC[C@]2(C(=O)NCc3cccc(COCc4cccc(C(=O)O)c4)c3)CC[C@]3(C)C(CCC4[C@@]5(C)CC[C@H](O)C(C)(C)C5CC[C@]43C)C12 (stereo partly drawn) [Example 206] | 444

Structure (SMILES) | IC50 [nM]
C=C(C)[C@@H]1CC[C@]2(C(=O)NCCc3cccc(C(=O)NC4CCC(C(=O)OC)CC4)c3)CC[C@]3(C)C(CCC4[C@@]5(C)CC[C@H](O)C(C)(C)C5CC[C@]43C)C12 (stereo partly drawn) [Example 207] | 193
C=C(C)[C@@H]1CC[C@]2(C(=O)NCCc3cccc(C(=O)NC4CCC(C(=O)O)CC4)c3)CC[C@]3(C)C(CCC4[C@@]5(C)CC[C@H](O)C(C)(C)C5CC[C@]43C)C12 (stereo partly drawn) [Example 209] | 356
C=C(C)[C@@H]1CC[C@]2(C(=O)NCCc3cccc(C(=O)NCC4(C(=O)O)CC4)c3)CC[C@]3(C)C(CCC4[C@@]5(C)CC[C@H](O)C(C)(C)C5CC[C@]43C)C12 (stereo partly drawn) [Example 219] | 396
C=C(C)[C@@H]1CC[C@]2(C(=O)NCCc3cccc(OCC(O)c4ccc(C(=O)O)cc4)c3)CC[C@]3(C)C(CCC4[C@@]5(C)CC[C@H](O)C(C)(C)C5CC[C@]43C)C12 (stereo partly drawn) [Example 220] | 259
C=C(C)[C@@H]1CC[C@]2(C(=O)NCCc3cccc(C(=O)NCc4ncccc4C(=O)O)c3)CC[C@]3(C)C(CCC4[C@@]5(C)CC[C@H](O)C(C)(C)C5CC[C@]43C)C12 (stereo partly drawn) [Example 228] | 135
C=C(C)[C@@H]1CC[C@]2(C(=O)NCCc3cccc(C(=O)NCc4ccc(OCCCN5CC(C)NC(C)C5)cc4)c3)CC[C@]3(C)C(CCC4[C@@]5(C)CC[C@H](O)C(C)(C)C5CC[C@]43C)C12 (stereo partly drawn) [Example 233] | 70
C=C(C)[C@@H]1CC[C@]2(C(=O)NCCc3cccc(C(=O)NCc4ccc(OCCCN5CCNCC5)cc4)c3)CC[C@]3(C)C(CCC4[C@@]5(C)CC[C@H](O)C(C)(C)C5CC[C@]43C)C12 (stereo partly drawn) [Example 238] | 678
C=C(C)[C@@H]1CC[C@]2(C(=O)NCCc3cccc(C(=O)NCc4ccc(OCCCn5cnc(C(=O)O)c5)c(C(=O)O)c4)c3)CC[C@]3(C)C(CCC4[C@@]5(C)CC[C@H](O)C(C)(C)C5CC[C@]43C)C12 (stereo partly drawn) [Example 247] | 417
C=C(C)[C@@H]1CC[C@]2(C(=O)NCCc3cccc(S(=O)(=O)NCc4cccc(C(=O)OC)c4)c3)CC[C@]3(C)C(CCC4[C@@]5(C)CC[C@H](O)C(C)(C)C5CC[C@]43C)C12 (stereo partly drawn) [Example 248] | 208
C=C(C)[C@@H]1CC[C@]2(C(=O)NCCc3cccc(S(=O)(=O)NCc4cccc(C(=O)O)c4)c3)CC[C@]3(C)C(CCC4[C@@]5(C)CC[C@H](O)C(C)(C)C5CC[C@]43C)C12 (stereo partly drawn) [Example 249] | 143
C=C(C)[C@@H]1CC[C@]2(C(=O)NCc3cc(C(=O)NCCc4ccc(S(N)(=O)=O)cc4)ccc3F)CC[C@]3(C)C(CCC4[C@@]5(C)CC[C@H](O)C(C)(C)C5CC[C@]43C)C12 (stereo partly drawn) [Example 259] | 175
C=C(C)[C@@H]1CC[C@]2(C(=O)NCCc3cc(C(=O)NCc4ccc(C(=O)OC)cn4)ccc3F)CC[C@]3(C)C(CCC4[C@@]5(C)CC[C@H](O)C(C)(C)C5CC[C@]43C)C12 (stereo partly drawn) [Example 260] | 150
C=C(C)[C@@H]1CC[C@]2(C(=O)NCCc3cc(C(=O)NCc4ccc(C(=O)O)cn4)ccc3F)CC[C@]3(C)C(CCC4[C@@]5(C)CC[C@H](O)C(C)(C)C5CC[C@]43C)C12 (stereo partly drawn) [Example 263] | 198
C=C(C)[C@@H]1CC[C@]2(C(=O)NCc3cccc(-c4noc(Cc5ccc(C#N)cc5)n4)c3)CC[C@]3(C)C(CCC4[C@@]5(C)CC[C@H](O)C(C)(C)C5CC[C@]43C)C12 (stereo partly drawn) [Example 276] | 10000
C=C(C)[C@@H]1CC[C@]2(C(=O)NCc3cccc(-c4noc(Cc5ccc(-c6nnn[nH]6)cc5)n4)c3)CC[C@]3(C)C(CCC4[C@@]5(C)CC[C@H](O)C(C)(C)C5CC[C@]43C)C12 (stereo partly drawn) [Example 277] | 10000

Same assay, conditions: Human immunodeficiency virus 1, text statement, less than about 100 nm; read-out: P4-MAGI assay IC50

Structure (SMILES) | IC50 [nM]
C=C(C)[C@@H]1CC[C@]2(C(=O)NCc3cccc(C(=O)NCCCCCCC(=O)O)c3)CC[C@]3(C)C(CCC4[C@@]5(C)CC[C@H](O)C(C)(C)C5CC[C@]43C)C12 (stereo partly drawn) [Example 2] | < 100
